The source of these data is publication PMC6072243 (ACS Omega, 2018).

SMILES strings stand for the structures.

One assay has as its target JNK3 (Homo sapiens, UniProt P53779). Put plainly: JNK3 enzyme-linked immunosorbent assay. It counts as biochemical.
The target in a further assay is p38α MAPK (Homo sapiens, UniProt Q16539). Put plainly: p38α MAPK enzyme-linked immunosorbent assay. It counts as biochemical. The conditions noted are these: for inhibition at 10 µM: read-out: Percent inhibition of p38α MAPK at indicated concentration.
p38α MAPK, sequence (Q16539 whole entry): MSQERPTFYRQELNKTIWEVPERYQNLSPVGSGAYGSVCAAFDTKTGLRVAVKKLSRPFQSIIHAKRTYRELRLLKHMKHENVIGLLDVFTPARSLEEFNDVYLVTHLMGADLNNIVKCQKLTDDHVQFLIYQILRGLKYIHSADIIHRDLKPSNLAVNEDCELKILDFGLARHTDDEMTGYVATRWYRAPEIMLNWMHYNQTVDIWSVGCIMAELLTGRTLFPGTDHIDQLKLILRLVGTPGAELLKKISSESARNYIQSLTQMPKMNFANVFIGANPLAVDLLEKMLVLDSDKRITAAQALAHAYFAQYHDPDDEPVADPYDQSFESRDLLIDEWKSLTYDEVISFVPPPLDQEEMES

JNK3, sequence (P53779 whole entry): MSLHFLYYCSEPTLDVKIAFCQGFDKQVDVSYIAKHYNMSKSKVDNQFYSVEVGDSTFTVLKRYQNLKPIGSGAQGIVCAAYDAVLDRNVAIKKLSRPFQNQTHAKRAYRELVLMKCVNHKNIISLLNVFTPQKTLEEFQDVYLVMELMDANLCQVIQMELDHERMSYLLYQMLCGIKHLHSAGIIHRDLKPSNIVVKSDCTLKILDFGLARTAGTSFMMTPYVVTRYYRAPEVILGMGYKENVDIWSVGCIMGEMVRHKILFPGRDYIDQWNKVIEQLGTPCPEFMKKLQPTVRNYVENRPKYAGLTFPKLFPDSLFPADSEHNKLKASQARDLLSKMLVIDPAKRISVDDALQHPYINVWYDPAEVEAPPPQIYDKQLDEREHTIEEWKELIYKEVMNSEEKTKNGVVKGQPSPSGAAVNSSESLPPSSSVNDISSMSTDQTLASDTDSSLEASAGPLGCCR

By IC50 is commonly meant the concentration that inhibits the measured activity by half. Low readings indicate greater potency in that assay, high ones weaker potency in that assay. Turning to `CSc1nc(-c2ccc(F)cc2)c(-c2ccnc(Nc3ccc(N4CCOCC4)cc3)c2)[nH]1` [Compound 5, 4-(4-(4-Fluorophenyl)-2-(methylthio)-1H-imidazol-5-yl)-N-(4-morpholinophenyl)pyridin-2-amine], the IC50 turned out to be 38 ± 2 nM at JNK3 and 17 ± 1 nM at p38α MAPK.

Take `O=c1[nH]c(-c2ccc(F)cc2)c(-c2ccnc(Nc3ccc(N4CCOCC4)cc3)c2)[nH]1` [Compound 8, 4-(4-Fluorophenyl)-5-(2-((4-morpholinophenyl)amino)pyridin-4-yl)-1,3-dihydro-2H-imidazol-2-one]: the IC50 on JNK3 was determined as 142 ± 28 nM; against p38α MAPK, 34 ± 4 nM.

In the case of `CCc1nc(-c2ccc(F)cc2)c(-c2ccnc(Nc3ccc(N4CCOCC4)cc3)c2)[nH]1` [Compound 13, 4-(2-Ethyl-4-(4-fluorophenyl)-1H-imidazol-5-yl)-N-(4-morpholinophenyl)pyridin-2-amine], the figures for the IC50 against JNK3 and against p38α MAPK were 34 ± 0.2 nM and 9 ± 4 nM, respectively.

As to `c1ccc(-c2nc[nH]c2-c2ccnc(Nc3ccc(N4CCOCC4)cc3)c2)cc1` [Compound 18a, N-(4-Morpholinophenyl)-4-(4-phenyl-1H-imidazol-5-yl)pyridin-2-amine], the results for the IC50 against JNK3 and against p38α MAPK were 37 ± 3 nM and 24 ± 3 nM, respectively.

Take `Clc1ccccc1-c1nc[nH]c1-c1ccnc(Nc2ccc(N3CCOCC3)cc2)c1` [Compound 18b, 4-(4-(2-Chlorophenyl)-1H-imidazole-5-yl)-N-(4-morpholinophenyl)pyridin-2-amine]: the IC50 was 60 ± 8 nM on JNK3 and 38 ± 2 nM on p38α MAPK.

As for `Brc1ccccc1-c1nc[nH]c1-c1ccnc(Nc2ccc(N3CCOCC3)cc2)c1` [Compound 18c, 4-(4-(2-Bromophenyl)-1H-imidazol-5-yl)-N-(4-morpholinophenyl)pyridin-2-amine], the IC50 against JNK3 came out at 131 ± 21 nM; on p38α MAPK, 61 ± 2 nM.

Take `FC(F)(F)c1cccc(-c2nc[nH]c2-c2ccnc(Nc3ccc(N4CCOCC4)cc3)c2)c1` [Compound 18d, N-(4-Morpholinophenyl)-4-(4-(3-(trifluoromethyl)phenyl)-1H-imidazol-5-yl)pyridin-2-amine]: the IC50 on JNK3 was 143 ± 12 nM; against p38α MAPK it was 22 ± 3 nM. On p38α MAPK (ratio of IC50 values), the “fold higher activity for p38α MAPK than for JNK3” value was 6 fold.

For the molecule `CCc1nc[nH]c1-c1ccnc(Nc2ccc(N3CCOCC3)cc2)c1` [Compound 39, 4-(4-Ethyl-1H-imidazol-5-yl)-N-(4-morpholinophenyl)pyridin-2-amine], on p38α MAPK, the IC50 was more than 10000 nM and the inhibition at 10 µM was found to be 34%.

Consider `Cc1[nH]c(N)nc1-c1ccnc(Nc2ccc(N3CCOCC3)cc2)c1` [Compound 47, 4-(2-Amino-5-methyl-1H-imidazol-4-yl)-N-(4-morpholinophenyl)pyridin-2-amine], for which, at p38α MAPK, the IC50 is more than 10000 nM and the inhibition at 10 µM was 43%.

For the molecule `CSc1nc(C)c(-c2ccnc(NC3CCOCC3)c2)[nH]1` [Compound 48f, 4-(4-Methyl-2-(methylthio)-1H-imidazol-5-yl)-N-(tetrahydro-2H-pyran-4-yl)pyridin-2-amine], at p38α MAPK, the IC50 is more than 10000 nM and the inhibition at 10 µM is 27%.

In the case of `CSc1nc(C)c(-c2ccnc(N[C@H]3CC[C@H](NC(=O)c4ccccc4)CC3)c2)[nH]1` [Compound 48j, N-(trans-4-((4-(4-Methyl-2-(methylthio)-1H-imidazol-5-yl)pyridin-2-yl)amino)cyclohexyl)benzamide], at p38α MAPK, the IC50 was more than 10000 nM and the inhibition at 10 µM was 12%.

As to `CSc1nc(C)c(-c2ccnc(N[C@H]3CC[C@H](NC(=O)C(C)(C)C)CC3)c2)[nH]1` [Compound 48l, N-(trans-4-((4-(4-Methyl-2-(methylthio)-1H-imidazol-5-yl)pyridin-2-yl)amino)cyclohexyl)pivalamide], at p38α MAPK, the half-maximal inhibitory concentration (IC50) was more than 10000 nM and the inhibition at 10 µM turned out to be 13%.

For `Oc1c2ccccc2c2c3c(cccc13)N=N2` [SP600125, reference compound], half-maximal inhibition at JNK3 (IC50) required 171 ± 36 nM.
